Data on 6 compounds can be found in patent publication US8575150B2, “Triazole derivatives for treatment of Alzheimer's disease” (Merck Sharp & Dohme Corp., priority 2008, dated 2013).

pIC50: −log10 of the molar value.

The experiment addresses T1, γ-secretase, Aβ(1-42) production in SH-SY5Y neuroblastoma cells overexpressing SPA4CT (Homo sapiens, UniProt P49768).
T1 construct: Human SH-SY5Y neuroblastoma cells overexpressing the direct γ-secretase substrate SPA4CT; endogenous in cells; host or cells: human SH-SY5Y neuroblastoma cells, transfected only with the substrate SPA4CT and induced with sodium butyrate
Kind of experiment: Cell-based γ-secretase assay, Aβ(42) detection. Conditions: overnight incubation. As for the experimental part: Cell-Based γ-Secretase Assay
Human SH-SY5Y neuroblastoma cells overexpressing the direct γ-secretase substrate SPA4CT were induced with sodium butyrate (10 mM) for 4 hours prior to plating. Cells were plated at 35,000 cells/well/100 μl in 96-well plates in phenol red-free MEM/10% FBS, 50 mM HEPES, 1% Glutamine and incubated for 2 hrs at 37° C., 5% CO2.
Appropriate vehicle and inhibitor controls were used to determine the window of the assay.
After incubation overnight at 37° C., 5% CO2, 25 μl and […] were transferred into a standard Meso avidin-coated 96-well plate for detection of Aβ(40) and Aβ(42) peptides, respectively. 25 μl Meso Assay buffer (PBS, 2% BSA, 0.2% Tween-20) was added to the Aβ(40) wells followed by the addition of 25 μl of the respective antibody premixes to the wells:
Aβ(42) premix: 1 μg/mlruthenylated G2-11 antibody, 4 μg/ml; and biotinylated 4G8 antibody diluted in Origen buffer
(Biotinylated 4G8 antibody supplied by Signet Pathology Ltd; G2-10 and G2-11 antibodies supplied by Chemicon)
After overnight incubation of the assay plates on a shaker at 4° C., the Meso Scale Sector 6000 Imager was calibrated according to the manufacturer's instructions. After washing the plates 3 times with 150 μl of PBS per well, 150 μl Meso Scale Discovery read buffer was added to each well and the plates were read on the Sector 6000 Imager according to the manufacturer's instructions.
The total signal and the background were defined by the corresponding Me2SO and inhibitor controls.

A word on the pIC50: it is the IC50 on a negative log10 scale, so that one unit is a factor of ten.

For the compound `COc1cc(-c2cn(C3CCc4ccccc4N(CC(F)(F)F)C3=O)nn2)ccc1-c1ccncc1` (stereo not drawn) [Example 1, 3-[4-(3-methoxy-4-pyridin-4-ylphenyl)-1H-1,2,3-triazol-1-yl]-1-(2,2,2-trifluoroethyl)-1,3,4,5-tetrahydro-2H-1-benzazepin-2-one], the pIC50 was 7.10.

Consider `O=C1C(n2cc(-c3ccc(Oc4cccnc4)cc3)nn2)CCc2c(F)cccc2N1CC(F)(F)F` (stereo not drawn) [Example 61, 6-fluoro-3-{4-[4-(pyridin-3-yloxy)phenyl]-1H-1,2,3-triazol-1-yl}-1-(2,2,2-trifluoroethyl)-1,3,4,5-tetrahydro-2H-1-benzazepin-2-one], for which the pIC50 was 6.27. Compared with the last compound, the pIC50 is 0.83 log units lower.

Turning to `O=C1C(n2cc(-c3ccc(-c4ccnnc4)cc3)nn2)CCc2c(F)cccc2N1CC(F)(F)F` (racemic) [Example 123, (R) and (S)-6-fluoro-3-[4-(4-pyridazin-4-ylphenyl)-1H-1,2,3-triazol-1-yl]-1-(2,2,2-trifluoroethyl)-1,3,4,5-tetrahydro-2H-1-benzazepin-2-one], the pIC50 was 7.08.

As for `COc1cc(-c2nc(C)no2)ccc1-c1cn(C2CCc3c(F)cccc3N(CC(F)(F)F)C2=O)nn1` (stereo not drawn) [Example 57, 6-fluoro-3-{4-[2-methoxy-4-(3-methyl-1,2,4-oxadiazol-5-yl)phenyl]-1H-1,2,3-triazol-1-yl}-1-(2,2,2-trifluoroethyl)-1,3,4,5-tetrahydro-2H-1-benzazepin-2-one], the pIC50 was 6.37.

Turning to `COc1cc(-c2cn(C3CCc4c(F)cccc4N(CC(F)(F)F)C3=O)nn2)ccc1Nc1cccnc1` (stereo not drawn) [Example 92, 6-fluoro-3-{4-[3-methoxy-4-(pyridin-3-ylamino)phenyl]-1H-1,2,3-triazol-1-yl}-1-(2,2,2-trifluoroethyl)-1,3,4,5-tetrahydro-2H-1-benzazepin-2-one], the pIC50 was 6.65.

On to `O=C1C(n2cc(-c3ncc(-c4ccncc4)cn3)nn2)CCc2c(F)cccc2N1CC(F)(F)F` (stereo not drawn) [Example 2, 6-fluoro-3-{4-[5-(pyridin-4-yl)pyrimidin-2-yl]-1H-1,2,3-triazol-1-yl}-1-(2,2,2-trifluoroethyl)-1,3,4,5-tetrahydro-2H-1-benzazepin-2-one], for which the pIC50 is 5.88.
